Here are results for 103 molecules from PubChem BioAssay AID1552 (Sanford-Burnham Center for Chemical Genomics, 2009).

The assay addresses Ubiquitin-conjugating enzyme E2 N (Homo sapiens) (UniProt P61088). The assay can be described thus: UBE2N binders by NMR, biophysical, purified protein (AID 1552). The following applies: NMR binding to purified UBE2N.

Activity calls are given as the source filed them. The rule behind the calls is not given here.

Ubiquitin-conjugating enzyme E2 N (Homo sapiens), sequence (P61088 whole entry, looked up): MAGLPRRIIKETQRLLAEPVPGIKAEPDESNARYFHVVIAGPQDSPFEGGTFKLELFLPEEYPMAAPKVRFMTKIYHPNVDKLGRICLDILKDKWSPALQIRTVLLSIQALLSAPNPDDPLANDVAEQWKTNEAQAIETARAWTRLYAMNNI

The term Kd denotes the constant that tells how readily two partners part at equilibrium. With `Cc1cccc(OCc2nnc(N)s2)c1`, the Kd was > 4 mM (inactive).
On to `N#Cc1cnn(Cc2ccc(Cl)cc2)c1N`, for which the Kd was > 4 mM (inactive).
`O=C(O)c1cccnc1`: the Kd was > 4 mM (inactive).
As for `NCc1ccc(S(=O)(=O)O)cc1`, the Kd is > 4 mM (inactive).
The result for `CNCc1ccco1` reads > 4 mM (inactive); that for `CC1CCN(S(=O)(=O)N(C)C)CC1`, > 4 mM (inactive); that for `O=c1c2ccccc2oc2ccc(O)cc12`, > 4 mM (inactive).
`O=c1cc(-c2ccc(O)cc2)oc2cc(O)cc(O)c12`: the Kd was > 4 mM (inactive).
Under `COc1ccc2c(=O)c(CC(=O)O)coc2c1` stands > 4 mM (inactive).
The result for `C=CCSc1[nH]c(=O)cc(C)c1C(N)=O` reads > 4 mM (inactive); that for `OC1CC(c2ccccc2)NC2(CCCC2)C1` (stereo not drawn), > 4 mM (inactive).
Consider `CNc1nc(N)c(C(=O)C(C)(C)C)s1`, for which the Kd is > 4 mM (inactive).
Consider `O/N=C1/CCCc2nonc21`, for which the Kd was > 4 mM (inactive).
Consider `O=C(O)CNc1ncnc2nc[nH]c12`, for which the Kd is > 4 mM (inactive).
Under `COC(=O)C1=C(C)N(Cc2ccco2)C(=O)C1` stands > 4 mM (inactive); under `COc1ccc(C(=O)NC2=NCCS2)cc1OC`, > 4 mM (inactive).
Under `NC(=O)c1ccsc1NC(=O)c1cccnc1` stands > 4 mM (inactive); under `O=C(NC1CSCC1O)c1ccccc1` (stereo not drawn), > 4 mM (inactive); under `Cc1cc(=O)oc2c1c(C)nn2CN1CCN(C)CC1`, > 4 mM (inactive).
Under `O[C@H]1C=C2CCN3Cc4cc5c(cc4C(C23)[C@@H]1O)OCO5` (stereo partly drawn) stands > 4 mM (inactive); under `[O-][n+]1onc2c1CCc1c-2nc(-c2ccccc2)n1O`, > 4 mM (inactive).
For the molecule `N/C(=N/S(=O)(=O)c1cccs1)c1ccccc1`, the Kd was > 4 mM (inactive).
`CCCCCCCCCCCCCCCCCCOCC(O)CO` (stereo not drawn): the Kd is > 4 mM (inactive).
For the molecule `Cc1c(C)[n+]([O-])c(-c2ccc([N+](=O)[O-])cc2)n1O`, the Kd is > 4 mM (inactive).
Under `COc1ccccc1NC(=O)c1ccc(C)s1` stands > 4 mM (inactive).
Under `O=C(NCc1ccco1)c1cccc(F)c1` stands > 4 mM (inactive); under `Cc1c(/C=N/O)cnn1C`, > 4 mM (inactive); under `Cc1ccccc1-n1c(-c2ccncc2)n[nH]c1=S`, > 4 mM (inactive).
Under `O=C(O)c1cnc2sc3ccccc3n2c1=O` stands > 4 mM (inactive); under `CC(C)C(C)/C=C/C(C)[C@H]1CCC2C3=CCC4CC(=O)CC[C@]4(C)C3CC[C@@]21C` (stereo partly drawn), > 4 mM (inactive).
With `CC(=O)NCCc1cc2ccc(C)c(C)c2[nH]c1=O`, the Kd is > 4 mM (inactive).
In the case of `COC(=O)c1cncc(C(=O)OC)c1`, the Kd was > 4 mM (inactive).
For `CC(C)=CCC1=C(O)c2ccccc2C(=O)C1=O`, the Kd was > 4 mM (inactive).
The result for `O=C(NN1CCOCC1)c1cccs1` reads > 4 mM (inactive); that for `Nc1ccc(Oc2ccccc2)nc1`, > 4 mM (inactive); that for `CC(C)=CC(=O)Nc1ccccc1C(N)=O`, > 4 mM (inactive).
Under `COC(=O)C1[C@H]2C[C@H]3c4[nH]c5ccccc5c4CCN3C[C@@H]2CC[C@@H]1O` (stereo partly drawn) stands > 4 mM (inactive); under `c1ccc(SCc2nc(-c3cccnc3)no2)cc1`, > 4 mM (inactive).
The result for `CN(C)c1ccc(/C=C2/NC(=S)NC2=O)cc1` reads > 4 mM (inactive); that for `O=[n+]1c(CO)c(CO)n([O-])c2ccccc21`, > 4 mM (inactive).
For `Nc1nc2n(c1C(=O)c1ccccc1)CCC2`, the Kd is > 4 mM (inactive).
The result for `COc1cccc(O)c1O` reads > 4 mM (inactive); that for `O=C(c1ccc2c(c1)OCO2)N1CCC2(CC1)OCCO2`, > 4 mM (inactive); that for `Cc1ccc2nc(NC(=O)CN3CCOCC3)sc2c1`, > 4 mM (inactive).
`O=C(Nn1cnnc1)c1cc2c(s1)CCCCC2`: the Kd is > 4 mM (inactive).
Under `O=C(O)Cn1cnc2ccccc2c1=O` stands > 4 mM (inactive); under `CN(C)S(=O)(=O)c1ccccc1C#N`, > 4 mM (inactive); under `CC1(C)C2CC(=O)[C@]3(C)C(CC[C@@]4(C)[C@H](c5ccoc5)OC(=O)[C@H]5O[C@]543)[C@@]2(C)C=C[C@@H]1O` (stereo partly drawn), > 4 mM (inactive).
Consider `CN1CCN(C(=O)/C=C\C(=O)O)CC1`, for which the Kd was > 4 mM (inactive).
Under `COc1ccc2c(c1OC)C(=O)OC2[C@H]1c2c(cc3c(c2OC)OCO3)CCN1C` (stereo partly drawn) stands > 4 mM (inactive).
In the case of `CCOC(=O)C1C(C=C(C)C)C1(C)C` (stereo not drawn), the Kd is > 4 mM (inactive).
Consider `Cc1cc(C)n(-c2cccc3cccnc23)n1`, for which the Kd is > 4 mM (inactive).
On to `C/C=C(/C)C(=O)O[C@H]1CC[C@@]2(C)[C@@H]3CC[C@H]4[C@]5(O)C[C@H](O)[C@@]6(O)[C@@H](CN7C[C@@H](C)CC[C@H]7[C@@]6(C)O)[C@]5(O)C[C@@]42OC13O`, for which the Kd is > 4 mM (inactive).
Under `O=C(O)CCCNC(=O)c1ccccc1C(=O)O` stands > 4 mM (inactive); under `CSc1ncnc2nc[nH]c12`, > 4 mM (inactive).
Under `COCc1nc(-c2cc(Br)ccc2OC)no1` stands > 4 mM (inactive).
Under `O=C(O)C1NCCc2ccccc21` (stereo not drawn) stands > 4 mM (inactive); under `CC(O)C(=O)N/N=C/c1cccs1` (stereo not drawn), > 4 mM (inactive).
`Cc1ccccc1NC(=O)/C=C\C(N)=O`: the Kd is > 4 mM (inactive).
Under `CC12CN3CC(C)(CN(C1)C3c1cccs1)C2O` (stereo not drawn) stands > 4 mM (inactive); under `CC[C@@]1(O)C[C@H](O)c2c(cc3c(c2O)C(=O)c2c(O)ccc(O)c2C3=O)[C@H]1C(=O)OC`, > 4 mM (inactive); under `CCC1=Nc2ccccc2-c2nnc(SC)nc2O1`, > 4 mM (inactive).
The result for `CC(CCC(=O)O)[C@H]1CCC2C3C[C@H](O)[C@@H]4C[C@H](O)CC[C@]4(C)C3CC[C@@]21C` (stereo partly drawn) reads > 4 mM (inactive); that for `Cc1cc(C(=O)NCc2ccccc2Br)no1`, > 4 mM (inactive).
`Cc1n[nH]c(=O)c2ncn(C)c12`: the Kd was > 4 mM (inactive).
The result for `O=CN1CCN(C(=O)c2ccccc2Cl)CC1` reads > 4 mM (inactive); that for `CC(=O)NCC1(c2ccccc2)CCOCC1`, > 4 mM (inactive).
Under `O=C(O)c1ccc2ncccc2c1` stands > 4 mM (inactive); under `Nc1cccc(OC(F)(F)F)c1`, > 4 mM (inactive).
Under `NCc1ccc(N2CCOCC2)cc1` stands > 4 mM (inactive); under `O=C1CCCC2C3CC(CN12)[C@@H]1CCCCN1C3` (stereo partly drawn), > 4 mM (inactive).
`CC(=O)c1ccc2c(c1)OCCO2`: the Kd is > 4 mM (inactive).
The result for `COCCOc1nc2ccccc2nc1C` reads > 4 mM (inactive); that for `COC(=O)Cc1cccc(OC)c1`, > 4 mM (inactive); that for `COC(=O)c1c(C)cc(OC(=O)c2c(C)cc(O)c(C=O)c2O)c(C)c1O`, > 4 mM (inactive).
Under `CC(=O)n1nc(-c2cccnc2)nc1N` stands > 4 mM (inactive).
The result for `CC1(C)C2CC(=O)[C@]3(C)C(CC[C@@]4(C)[C@H](c5ccoc5)OC(=O)C5OC543)[C@@]2(C)[C@@H](O)C[C@H]1O` (stereo partly drawn) reads > 4 mM (inactive).
`CCOC(=O)Cc1nc2ccccc2[nH]1`: the Kd is > 4 mM (inactive).
The result for `Cc1cccc(NS(=O)(=O)c2cccs2)n1` reads > 4 mM (inactive).
The result for `CC(=O)NC(=S)Nc1ccccc1N1CCOCC1` reads > 4 mM (inactive); that for `COC(=O)CCC(C)[C@H]1CCC2C3C(C[C@H](O)[C@@]21C)[C@@]1(C)CC[C@@H](O)C[C@H]1C[C@H]3O` (stereo partly drawn), > 4 mM (inactive); that for `NC(=O)CSc1nnc(-c2ccncc2)o1`, > 4 mM (inactive).
The result for `O=c1c[n+]([O-])c2ccccc2n1OCc1ccccc1` reads > 4 mM (inactive); that for `Cc1nnc(SCC(=O)NC2CCCC2)[nH]c1=O`, > 4 mM (inactive).
For `Cc1cc2ncn(S(=O)(=O)N3CCOCC3)c2cc1C`, the Kd was > 4 mM (inactive).
The result for `NC(=O)c1ccc(NC(=O)c2cccnc2)cc1` reads > 4 mM (inactive); that for `NC(=O)Cn1nnc(-c2ccc(C(F)(F)F)cc2)n1`, > 4 mM (inactive).
Take `C/C(N)=C/C(=O)N1CCCCC1`: the Kd was > 4 mM (inactive).
Under `NC(=O)c1ccccc1NC(=O)C1CC1` stands > 4 mM (inactive); under `COC(=O)c1c(OC)cc2c(c1C)Oc1c(Cl)c(O)c(Cl)c(C)c1C(=O)O2`, > 4 mM (inactive); under `O=C(Nc1nc2c(s1)CCCC2)c1cccnc1`, > 4 mM (inactive).
The result for `Cc1cc(N2C(=O)CCC2=O)n(-c2ccccc2)n1` reads > 4 mM (inactive).
The result for `OCCNC(=S)Nc1ccc(F)cc1` reads > 4 mM (inactive); that for `N#Cc1cnc(N2CCCCC2)nc1N`, > 4 mM (inactive).
For `Cn1ncc(C(=O)NC2CCCCC2)c1Cl`, the Kd is > 4 mM (inactive).
Under `Nc1ccc2ncsc2c1` stands > 4 mM (inactive); under `O=[n+]1cc(-c2ccccc2)n([O-])c2c1CCC2`, > 4 mM (inactive).
For `C=C1C(=O)OC2CC1C(OC(C)=O)C/C(C)=C/CC/C(C)=C/CC[C@]2(C)O` (stereo partly drawn), the Kd is > 4 mM (inactive).
Under `O=C(CCc1n[nH]c(=O)[nH]c1=O)NCc1ccccc1` stands > 4 mM (inactive); under `O=C(Nc1nnc(-c2ccco2)o1)C1=COCCO1`, > 4 mM (inactive); under `O=C(O)c1ccc2c(c1)OCO2`, > 4 mM (inactive).
The result for `CC(C)(C)P(=O)(O)c1ccccc1` reads > 4 mM (inactive); that for `C[C@@H](N)[C@@H](O)c1ccccc1`, > 4 mM (inactive).
